Reference: patent US8022072B2, “Azolylmethylidenehydrazine derivative and use thereof” (Kaken Pharmaceutical Co., Ltd., priority 2007, dated 2011)

Key:
TNCB-induced dermatitis = test: 2,4,6-Trinitrochlorobenzene (TNCB)-induced dermatitis model, ear edema; assay type: in vivo, male BALB/c mouse; details: test compound 1 w/v % (FK506 0.1 w/v %), 20 μL applied to auricle, 24 hours after induction
Procedure: (§1) The test compound was adjusted to 1 w/v % when in use with a solvent (acetone:olive oil=1:1, v/v)) and put to use. FK506 (control substance) was adjusted to 0.1 w/v % and used.
The fur on the abdomen of male BALB/c mouse was shaved with a hair clipper, and 100 μL of 7 w/v % TNCB sensitizing liquid (solvent was acetone:olive oil=4:1, v/v) was applied. Six days after the sensitization, the thickness of the right auricle was measured with a micrometer (pre-value). After the measurement, 10 μL of 1 w/v % TNCB challenge liquid (solvent was acetone:olive oil=1:9, v/v) was applied to the inside of the right auricle to induce ear edema. About 5 minutes after the application of the challenge liquid, 20 μL of the test compound was applied to the outside of the auricle.
After 24 hours from the induction of ear edema, the thickness of the right auricle was measured by a method similar to the pre-value (post-value). The difference between the post-value and the pre-value of ear edema by each test compound was determined, based on which the inhibition rate was calculated. The activity of each test compound was calculated with the ear edema inhibition rate of FK506 as 1.0 (ear edema inhibition rate of each test compound/ear edema inhibition rate of FK506).

OVA-induced dermatitis = test: Ovalbumin (OVA)-induced dermatitis model, ear edema; assay type: in vivo, male ICR mouse; set-up: key: ratio of compound's ear edema inhibition rate to FK506's (FK506 = 1.0); details: test compound 1 w/v % (FK506 0.1 w/v %), 20 μL applied to auricle, 24 hours after induction
Procedure: as §1
Male ICR mouse was sensitized by the administration of 0.2 mL of OVA-hydroxide aluminum gel suspension to the abdominal cavity. After 14 days from the sensitization, the thickness of the right auricle was measured with a micrometer (pre-value). After the measurement, 20 μL of 0.5 μg/mL OVA challenge liquid (solvent was physiological saline) was subcutaneously administered to the inside of the auricle to induce ear edema. About 5 minutes after the administration of the challenge liquid, 20 μL of the test compound was applied to the outside of the auricle. After 24 hours from the induction of ear edema, the thickness of the right auricle was measured by a method similar to the pre-value (post-value). The difference between the post-value and the pre-value of ear edema by each test compound was determined, based on which the inhibition rate was calculated. The activity of each test compound was calculated with the ear edema inhibition rate of FK506 as 1.0 (ear edema inhibition rate of each test compound/ear edema inhibition rate of FK506).

In the case of `CCCCCCc1ccccc1C(=NN(C)C)n1ccnc1` [Compound No. 5, N′-[1-(2-hexylphenyl)-1-imidazol-1-ylmethylidene]-N,N-dimethylhydrazine], the “TNCB-induced dermatitis, with ear edema inhibition rate of FK506 as 1.0” value (TNCB-induced dermatitis) is reported as 0.6 and the “OVA-induced dermatitis, with ear edema inhibition rate of FK506 as 1.0” value (OVA-induced dermatitis) is reported as 1.2.

`CCCCCOc1ccccc1C(=NN(C)C)n1ccnc1` [Compound No. 24, N′-[1-imidazol-1-yl-1-(2-pentyloxyphenyl)methylidene]-N,N-dimethylhydrazine] was tested, and the “TNCB-induced dermatitis, with ear edema inhibition rate of FK506 as 1.0” value (TNCB-induced dermatitis) was 0.5 and the “OVA-induced dermatitis, with ear edema inhibition rate of FK506 as 1.0” value (OVA-induced dermatitis) was 0.9.

For `CN(C)N=C(c1ccccc1OCc1ccc(F)cc1)n1ccnc1` [Compound No. 35, N′-[1-[2-(4-fluorobenzyloxy)phenyl]-1-imidazol-1-ylmethylidene]-N,N-dimethylhydrazine], the “TNCB-induced dermatitis, with ear edema inhibition rate of FK506 as 1.0” value (TNCB-induced dermatitis) was 0.6 and the “OVA-induced dermatitis, with ear edema inhibition rate of FK506 as 1.0” value (OVA-induced dermatitis) was 0.9.

With `CN(C)N=C(c1ccccc1OCc1ccc(Cl)cc1)n1ccnc1` [Compound No. 38, N′-[1-[2-(4-chlorobenzyloxy)phenyl]-1-imidazol-1-ylmethylidene]-N,N-dimethylhydrazine] the “TNCB-induced dermatitis, with ear edema inhibition rate of FK506 as 1.0” value (TNCB-induced dermatitis) was 0.7 and the “OVA-induced dermatitis, with ear edema inhibition rate of FK506 as 1.0” value (OVA-induced dermatitis) was 1.1.

`CN(C)N=C(c1ccccc1OCc1cccc(Cl)c1)n1ccnc1` [Compound No. 40, N′-[1-[2-(3-chlorobenzyloxy)phenyl]-1-imidazol-1-ylmethylidene]-N,N-dimethylhydrazine] was tested, and the “TNCB-induced dermatitis, with ear edema inhibition rate of FK506 as 1.0” value (TNCB-induced dermatitis) was 0.7 and the “OVA-induced dermatitis, with ear edema inhibition rate of FK506 as 1.0” value (OVA-induced dermatitis) was 1.0.

`CCc1ccc(COc2ccccc2C(=NN(C)C)n2ccnc2)cc1` [Compound No. 48, N′-[1-[2-(4-ethylbenzyloxy)phenyl]-1-imidazol-1-ylmethylidene]-N,N-dimethylhydrazine] was tested, and the “TNCB-induced dermatitis, with ear edema inhibition rate of FK506 as 1.0” value (TNCB-induced dermatitis) was 0.5 and the “OVA-induced dermatitis, with ear edema inhibition rate of FK506 as 1.0” value (OVA-induced dermatitis) was 1.0.

`CN(C)N=C(c1ccccc1OCCc1ccccc1)n1ccnc1` [Compound No. 56, N′-[1-imidazol-1-yl-1-(2-phenethoxyphenyl)methylidene]-N,N-dimethylhydrazine] was tested, and the “TNCB-induced dermatitis, with ear edema inhibition rate of FK506 as 1.0” value (TNCB-induced dermatitis) was 0.7 and the “OVA-induced dermatitis, with ear edema inhibition rate of FK506 as 1.0” value (OVA-induced dermatitis) was 1.2.

With `CN(C)N=C(c1ccccc1OCCc1ccc(F)cc1)n1ccnc1` [Compound No. 57, N′-[1-[2-[2-(4-fluorophenyl)ethoxy]phenyl]-1-imidazol-1-ylmethylidene]-N,N-dimethylhydrazine] the “TNCB-induced dermatitis, with ear edema inhibition rate of FK506 as 1.0” value (TNCB-induced dermatitis) was 0.8 and the “OVA-induced dermatitis, with ear edema inhibition rate of FK506 as 1.0” value (OVA-induced dermatitis) was 1.8.

With `COc1ccc(CCOc2ccccc2C(=NN(C)C)n2ccnc2)cc1` [Compound No. 58, N′-[1-imidazol-1-yl-1-[2-[2-(4-methoxyphenyl)ethoxy]phenyl]methylidene]-N,N-dimethylhydrazine] the “TNCB-induced dermatitis, with ear edema inhibition rate of FK506 as 1.0” value (TNCB-induced dermatitis) was 0.9 and the “OVA-induced dermatitis, with ear edema inhibition rate of FK506 as 1.0” value (OVA-induced dermatitis) was 1.0.

`CN(C)N=C(c1ccccc1OCC1COc2ccccc2O1)n1ccnc1` (centres unmarked) [Compound No. 73, N′-[1-[2-(2,3-dihydrobenzo[1,4]dioxin-2-ylmethoxy)phenyl]-1-imidazol-1-ylmethylidene]-N,N-dimethylhydrazine] was tested, and the “TNCB-induced dermatitis, with ear edema inhibition rate of FK506 as 1.0” value (TNCB-induced dermatitis) was 0.7 and the “OVA-induced dermatitis, with ear edema inhibition rate of FK506 as 1.0” value (OVA-induced dermatitis) was 1.1.

With `CN(C)N=C(c1ccccc1SCCc1ccccc1)n1ccnc1` [Compound No. 84, N′-[1-imidazol-1-yl-1-(2-phenethylthiophenyl)methylidene]-N,N-dimethylhydrazine] the “TNCB-induced dermatitis, with ear edema inhibition rate of FK506 as 1.0” value (TNCB-induced dermatitis) was 0.9 and the “OVA-induced dermatitis, with ear edema inhibition rate of FK506 as 1.0” value (OVA-induced dermatitis) was 1.4.

`CN(C)N=C(c1cccn1CCCOc1ccccc1)n1ccnc1` [Compound No. 108, N′-[1-imidazol-1-yl-1-[1-(3-phenoxypropyl)pyrrol-2-yl]methylidene]-N,N-dimethylhydrazine] was tested, and the “TNCB-induced dermatitis, with ear edema inhibition rate of FK506 as 1.0” value (TNCB-induced dermatitis) was 0.9 and the “OVA-induced dermatitis, with ear edema inhibition rate of FK506 as 1.0” value (OVA-induced dermatitis) was 1.4.

With `CCN(C)N=C(c1ccccc1OCc1ccc(F)cc1)n1ccnc1` [Compound No. 113, N-ethyl-N′-[1-[2-(4-fluorobenzyloxy)phenyl]-1-imidazol-1-ylmethylidene]-N-methylhydrazine] the “TNCB-induced dermatitis, with ear edema inhibition rate of FK506 as 1.0” value (TNCB-induced dermatitis) was 0.6 and the “OVA-induced dermatitis, with ear edema inhibition rate of FK506 as 1.0” value (OVA-induced dermatitis) was 1.7.

`CCN(C)N=C(c1ccccc1OCCCOc1ccccc1)n1ccnc1` [Compound No. 115, N-ethyl-N′-[1-imidazol-1-yl-1-[2-(3-phenoxypropoxy)phenyl]methylidene]-N-methylhydrazine] was tested, and the “TNCB-induced dermatitis, with ear edema inhibition rate of FK506 as 1.0” value (TNCB-induced dermatitis) was 0.7 and the “OVA-induced dermatitis, with ear edema inhibition rate of FK506 as 1.0” value (OVA-induced dermatitis) was 1.4.

`CCN(C)N=C(c1ccccc1OCCCCOc1ccccc1)n1ccnc1` [Compound No. 116, N-ethyl-N′-[1-imidazol-1-yl-1-[2-(4-phenoxybutoxy)phenyl]methylidene]-N-methylhydrazine] was tested, and the “TNCB-induced dermatitis, with ear edema inhibition rate of FK506 as 1.0” value (TNCB-induced dermatitis) was 0.7 and the “OVA-induced dermatitis, with ear edema inhibition rate of FK506 as 1.0” value (OVA-induced dermatitis) was 1.1.

With `CCN(CC)N=C(c1ccccc1OCCOc1ccccc1)n1ccnc1` [Compound No. 119, N,N-diethyl-N′-[1-imidazol-1-yl-1-[2-(2-phenoxyethoxy)phenyl]methylidene]hydrazine] the “TNCB-induced dermatitis, with ear edema inhibition rate of FK506 as 1.0” value (TNCB-induced dermatitis) was 0.9 and the “OVA-induced dermatitis, with ear edema inhibition rate of FK506 as 1.0” value (OVA-induced dermatitis) was 1.1.

For `c1ccc(OCCOc2ccccc2C(=NN2CCCCC2)n2ccnc2)cc1` [Compound No. 175, [1-imidazol-1-yl-1-[2-(2-phenoxyethoxy)phenyl]methylidene]piperidin-1-ylamine], the “TNCB-induced dermatitis, with ear edema inhibition rate of FK506 as 1.0” value (TNCB-induced dermatitis) was 0.6 and the “OVA-induced dermatitis, with ear edema inhibition rate of FK506 as 1.0” value (OVA-induced dermatitis) was 1.4.

For `CCOc1ccccc1C(=NN1CCCCCC1)n1ccnc1` [Compound No. 197, [1-(2-ethoxyphenyl)-1-imidazol-1-ylmethylidene]homopiperidin-1-ylamine], the “TNCB-induced dermatitis, with ear edema inhibition rate of FK506 as 1.0” value (TNCB-induced dermatitis) was 0.7 and the “OVA-induced dermatitis, with ear edema inhibition rate of FK506 as 1.0” value (OVA-induced dermatitis) was 1.1.

With `CCCCOc1ccccc1C(=NN1CCCCCC1)n1ccnc1` [Compound No. 202, [1-(2-butoxyphenyl)-1-imidazol-1-ylmethylidene]homopiperidin-1-ylamine] the “TNCB-induced dermatitis, with ear edema inhibition rate of FK506 as 1.0” value (TNCB-induced dermatitis) was 0.7 and the “OVA-induced dermatitis, with ear edema inhibition rate of FK506 as 1.0” value (OVA-induced dermatitis) was 1.0.

In the case of `CCCCCOc1ccccc1C(=NN1CCCCCC1)n1ccnc1` [Compound No. 203, homopiperidin-1-yl-[1-imidazol-1-yl-1-(2-pentyloxyphenyl)methylidene]amine], the “TNCB-induced dermatitis, with ear edema inhibition rate of FK506 as 1.0” value (TNCB-induced dermatitis) is reported as 0.9 and the “OVA-induced dermatitis, with ear edema inhibition rate of FK506 as 1.0” value (OVA-induced dermatitis) is reported as 1.0.

`c1ccc(OCCOc2ccccc2C(=NN2CCCCCC2)n2ccnc2)cc1` [Compound No. 215, homopiperidin-1-yl-[1-imidazol-1-yl-1-[2-(2-phenoxyethoxy)phenyl]methylidene]amine] was tested, and the “TNCB-induced dermatitis, with ear edema inhibition rate of FK506 as 1.0” value (TNCB-induced dermatitis) was 0.8 and the “OVA-induced dermatitis, with ear edema inhibition rate of FK506 as 1.0” value (OVA-induced dermatitis) was 1.2.

`c1ccc(OCCCOc2ccccc2C(=NN2CCCCCC2)n2ccnc2)cc1` [Compound No. 216, homopiperidin-1-yl-[1-imidazol-1-yl-1-[2-(3-phenoxypropoxy)phenyl]methylidene]amine] was tested, and the “TNCB-induced dermatitis, with ear edema inhibition rate of FK506 as 1.0” value (TNCB-induced dermatitis) was 0.5 and the “OVA-induced dermatitis, with ear edema inhibition rate of FK506 as 1.0” value (OVA-induced dermatitis) was 1.5.

`FC(F)(F)Oc1ccccc1C(=NN1CCCCCC1)n1ccnc1` [Compound No. 219, homopiperidin-1-yl-[1-imidazol-1-yl-1-(2-trifluoromethoxyphenyl)methylidene]amine] was tested, and the “TNCB-induced dermatitis, with ear edema inhibition rate of FK506 as 1.0” value (TNCB-induced dermatitis) was 0.6 and the “OVA-induced dermatitis, with ear edema inhibition rate of FK506 as 1.0” value (OVA-induced dermatitis) was 1.1.

With `CCSc1ccccc1C(=NN1CCCCCC1)n1ccnc1` [Compound No. 220, [1-(2-ethylthiophenyl)-1-imidazol-1-ylmethylidene]homopiperidin-1-ylamine] the “TNCB-induced dermatitis, with ear edema inhibition rate of FK506 as 1.0” value (TNCB-induced dermatitis) was 0.5 and the “OVA-induced dermatitis, with ear edema inhibition rate of FK506 as 1.0” value (OVA-induced dermatitis) was 1.1.

In the case of `C=CC[C@@H]1/C=C(\C)C[C@H](C)C[C@H](OC)[C@H]2O[C@@](O)(C(=O)C(=O)N3CCCC[C@H]3C(=O)O[C@H](/C(C)=C/[C@@H]3CC[C@@H](O)[C@H](OC)C3)[C@H](C)[C@@H](O)CC1=O)[C@H](C)C[C@@H]2OC` [FK506, tacrolimus, reference compound], the “TNCB-induced dermatitis, with ear edema inhibition rate of FK506 as 1.0” value (TNCB-induced dermatitis) is reported as 1.0 and the “OVA-induced dermatitis, with ear edema inhibition rate of FK506 as 1.0” value (OVA-induced dermatitis) is reported as 1.0.
